The values below come from ChEMBL document CHEMBL3272324, “Studies on antitumor agents, 2. Syntheses and antitumor activities of 1-(tetrahydro-2-furanyl)-5-fluorouracil and 1,3-bis(tetrahydro-2-furanyl)-5-fluorouracil” (J Med Chem, 1978).

The nature of data set [1]: Antitumor activity against mouse Ehrlich carcinoma cells allografted in ddY mouse assessed as tumor inhibition at 0.45 mmol/kg, po qd for 7 days measured on day 10 relative to control. Format: functional. The following applies: read-out: TGI.
Data set [2] concerns YOSHIDA. Briefly: Antitumor activity against rat Yoshida cells allografted in Donryu rat assessed as tumor inhibition at 0.15 mmol/kg, po qd for 7 days measured on day 10 relative to control. Format: functional. Conditions: read-out: TGI.
Data set [3] in a line: Antitumor activity against mouse Ehrlich carcinoma cells allografted in ddY mouse assessed as tumor inhibition at 0.15 mmol/kg, po qd for 7 days measured on day 10 relative to control. The following applies: read-out: TGI. The class given is functional.
Data set [4] is described as follows: Antitumor activity against rat AH-130 cells allografted in Donryu rat assessed as tumor inhibition at 0.45 mmol/kg, po qd for 7 days measured on day 10 relative to control. The class given is functional. The following applies: read-out: TGI.
The test system of data set [5] is W256. Briefly: Antitumor activity against rat Walker 256 cells allografted in Wistar rat assessed as tumor inhibition at 0.15 mmol/kg, po qd for 7 days measured on day 10 relative to control. Format: functional. The following applies: read-out: TGI.
A short description of data set [6]: Toxicity in po dosed ddY mouse after 3 weeks by up and down method. Format: organism-based. Conditions: in vivo.
For data set [7], the system named is Sarcoma-180. Briefly: Antitumor activity against mouse Sarcoma 180 cells allografted in ICR mouse assessed as tumor inhibition at 0.45 mmol/kg, po qd for 7 days measured on day 10 relative to control. Format: functional. Conditions: Sarcoma-180, po, read-out: TGI.
Data set [8] can be described thus: Antitumor activity against rat AH-130 cells allografted in Donryu rat assessed as tumor inhibition at 0.15 mmol/kg, po qd for 7 days measured on day 10 relative to control. Format: functional. Conditions: read-out: TGI.
Data set [9] concerns Sarcoma-180. Kind of data set: Antitumor activity against mouse Sarcoma 180 cells allografted in ICR mouse assessed as tumor inhibition at 0.15 mmol/kg, po qd for 7 days measured on day 10 relative to control. The class given is functional. Conditions: Sarcoma-180, po, read-out: TGI.
Data set [10] in a line: Toxicity in po dosed ddY mouse after 3 days by up and down method. The following applies: in vivo. The class given is organism-based.
The test system of data set [11] is W256. Kind of data set: Antitumor activity against rat Walker 256 cells allografted in Wistar rat assessed as tumor inhibition at 0.45 mmol/kg, po qd for 7 days measured on day 10 relative to control. Format: functional. Conditions: read-out: TGI.
In data set [12] the test system is YOSHIDA. Briefly: Antitumor activity against rat Yoshida cells allografted in Donryu rat assessed as tumor inhibition at 0.45 mmol/kg, po qd for 7 days measured on day 10 relative to control. The following applies: read-out: TGI. Format: functional.
The subject of data set [13] is Rattus norvegicus. Kind of data set: Toxicity in Donryu rat allografted with rat AH-130 cells assessed as body weight change at 0.15 mmol/kg, po administered for 7 days measured on day 10 relative to control. Conditions: in vivo, 168 h. The class given is organism-based.
Data set [14] deals with Rattus norvegicus. Briefly: Toxicity in Donryu rat allografted with rat AH-130 cells assessed as body weight change at 0.45 mmol/kg, po administered for 7 days measured on day 10 relative to control. Conditions: in vivo, 168 h. Format: organism-based.
Data set [15] is described as follows: Antitumor activity against mouse Ehrlich carcinoma cells allografted in ddY mouse assessed as tumor inhibition at 0.08 mmol/kg, po qd for 7 days measured on day 10 relative to control. Format: functional. Conditions: read-out: TGI.
The test system of data set [16] is Rattus norvegicus. Briefly: Toxicity in Donryu rat allografted with rat AH-130 cells assessed as body weight change at 0.08 mmol/kg, po administered for 7 days measured on day 10 relative to control. Format: organism-based. Conditions: in vivo, 168 h.
For data set [17], the system named is YOSHIDA. Briefly: Antitumor activity against rat Yoshida cells allografted in Donryu rat assessed as tumor inhibition at 0.08 mmol/kg, po qd for 7 days measured on day 10 relative to control. The class given is functional. The following applies: read-out: TGI.
In data set [18] the test system is W256. Kind of data set: Antitumor activity against rat Walker 256 cells allografted in Wistar rat assessed as tumor inhibition at 0.08 mmol/kg, po qd for 7 days measured on day 10 relative to control. The following applies: read-out: TGI. The class given is functional.
Data set [19] is described as follows: Antitumor activity against rat AH-130 cells allografted in Donryu rat assessed as tumor inhibition at 0.08 mmol/kg, po qd for 7 days measured on day 10 relative to control. The class given is functional. Conditions: read-out: TGI.
Data set [20] deals with Sarcoma-180. Briefly: Antitumor activity against mouse Sarcoma 180 cells allografted in ICR mouse assessed as tumor inhibition at 0.08 mmol/kg, po qd for 7 days measured on day 10 relative to control. Format: functional. Conditions: Sarcoma-180, po, read-out: TGI.

With `O=c1c(F)cn(C2CCCO2)c(=O)n1C1CCCO1` (stereo not drawn), the inhibition in vivo at 450 µmol/kg was 61% in data set [1]; 44% in data set [4]; 56% in the data set with Sarcoma-180 [7]; 37% in the data set on W256 [11]; 58% with YOSHIDA [12]. In addition, the inhibition in vivo at 150 µmol/kg in the data set with YOSHIDA [2] is 43%; in data set [3] it was 50%; in the data set with W256 [5] it was 27%; in data set [8] it was 32%; in the data set with Sarcoma-180 [9], 45%. In addition, the 50% lethal dose (LD50) at 504 h in [6] turned out to be 2660 mg/kg. In data set [10], this compound had a 50% lethal dose (LD50) at 72 h of 2900 mg/kg.
Take `O=c1[nH]cc(F)c(=O)n1C1CCCO1` (stereo not drawn): in data set [4], the inhibition in vivo at 450 µmol/kg is 80%. Further, the Activity with Rattus norvegicus [13] was determined as 47.3 g; in the data set on Rattus norvegicus [14], 21.7 g. In addition, the inhibition in vivo at 150 µmol/kg in data set [8] was 45%.
Consider `O=c1[nH]cc(F)c(=O)[nH]1` [FLUOROURACIL], for which the inhibition in vivo at 80 µmol/kg in data set [15] was 42%; in the data set on YOSHIDA [17], 41%; in the data set on W256 [18] it was 24%; in data set [19] it was 33%; in the data set on Sarcoma-180 [20], 48%. The Activity with Rattus norvegicus [16] is listed as 42.1 g.
As to `O=c1[nH]c(=O)n(C2CCCO2)cc1F` (stereo not drawn) [TEGAFUR], the inhibition in vivo at 450 µmol/kg was determined as 54% in data set [1]; 35% in data set [4]; 37% in the data set on Sarcoma-180 [7]; 31% in the data set with W256 [11]; 52% in the data set with YOSHIDA [12]. Further, the inhibition in vivo at 150 µmol/kg with YOSHIDA [2] was determined as 32%; in data set [3] it was 38%; with W256 [5], 27%; in data set [8] it was 22%; in the data set with Sarcoma-180 [9], 38%. In addition, the Activity with Rattus norvegicus [14] is given as 40.9 g.
